Active and inactive are the calls of the source. The calls are words filed in the database; no cut-off is given here.

In data set [1] the test system is MCF7. Nature of the data set: Induction of apoptosis in human MCF7 cells assessed as dead cells at 1 uM measured after 24 hrs by Annexin-V FITC/PI staining based flow cytometry analysis (Rvb= 0.06%). In kind it is functional. In general terms: Flow cytometry measures light scatter and fluorescence of single cells or particles in a stream.
Data set [2] relates to MCF7. Nature of the data set: Induction of cell cycle arrest in human MCF7 cells assessed as accumulation of cells in S phase at 1 uM measured after 24 hrs by propidium iodide staining based flow cytometry analysis (Rvb= 25.71%). In kind it is functional.
Data set [3] concerns MCF7. Nature of the data set: Induction of apoptosis in human MCF7 cells assessed as upregulation of Bax expression at 0.5 to 2 uM measured after 24 hrs by western blot analysis. Type of data set: functional, cell-based. The following applies: dose 0.5-2 µM. (A western blot detects proteins with antibodies after separation by electrophoresis.)
Data set [4] is described as follows: Toxicity in BALB/c mouse xenografted with human MCF7 cells assessed as effect on spleen at 30 to 60 mg/kg, ip measured after 21 days by hematoxylin and eosin staining based histopathological analysis. Type of data set: organism-based. The note with it: in vivo, 504 h, dose 30-60 mg/kg, time 21 day. (In general: In xenograft studies the graft and the host belong to different species.)

The subject of data set [5] is MCF7. Nature of the data set: Antitumor activity against human MCF7 cells xenografted in BALB/c nude mouse assessed as reduction in tumor weight at 30 to 60 mg/kg, ip administered once every 2 days for 21 consecutive days. Type of data set: functional, organism-based. The note with it: dose 30-60 mg/kg, time 21.0 day.
In data set [6] the test system is MCF7. Nature of the data set: Induction of apoptosis in human MCF7 cells assessed as live cells at 0.5 uM measured after 24 hrs by Annexin-V FITC/PI staining based flow cytometry analysis (Rvb= 93.0%). In kind it is functional.
The test system of data set [7] is MCF7. Nature of the data set: Antiproliferative activity against human MCF7 cells assessed as inhibition of cell growth measured after 48 hrs by MTT assay. Type of data set: functional, cell-based. The note with it: MCF7, 48 h.
Data set [8] deals with MCF7. Nature of the data set: Induction of cell cycle arrest in human MCF7 cells assessed as accumulation of cells in G2/M phase at 0.25 to 1 uM measured after 24 hrs by propidium iodide staining based flow cytometry analysis (Rvb= 19.7%). In kind it is functional. The following applies: dose 0.25-1 µM.
For data set [9], the system named is MCF7. Nature of the data set: Induction of apoptosis in human MCF7 cells assessed as late apoptotic cells at 0.5 uM measured after 24 hrs by Annexin-V FITC/PI staining based flow cytometry analysis (Rvb= 5.61%). Type of data set: functional.
Data set [10] can be described thus: Toxicity in BALB/c mouse xenografted with human MCF7 cells assessed as effect on liver at 30 to 60 mg/kg, ip measured after 21 days by hematoxylin and eosin staining based histopathological analysis. Type of data set: organism-based. The note with it: in vivo, 504 h, dose 30-60 mg/kg, time 21 day.
For data set [11], the system named is MCF7. Nature of the data set: Inhibition of PI3K/AKT signalling pathway in human MCF7 cells assessed as reduction in phosphorylated AKT expression measured after 24 hrs by western blot analysis. The following applies: dose 0.5-2 µM. In kind it is cell-based.
Data set [12] deals with MCF7. Nature of the data set: Induction of cell cycle arrest in human MCF7 cells assessed as accumulation of cells in G2 phase at 0.5 uM measured after 24 hrs by propidium iodide staining based flow cytometry analysis (Rvb= 18.5%). In kind it is functional.
Data set [13] has as its system MCF7. Nature of the data set: Inhibition of PI3K/AKT signalling pathway in human MCF7 cells assessed as reduction in phosphorylated PI3K expression measured after 24 hrs by western blot analysis. In kind it is cell-based. The following applies: dose 0.5-2 µM.
Data set [14] can be described thus: Toxicity in BALB/c mouse xenografted with human MCF7 cells assessed as weight loss at 30 to 60 mg/kg, ip measured after 21 days. The following applies: in vivo, 504 h, dose 30-60 mg/kg, time 21 day. In kind it is organism-based.

For the molecule `COc1cc2cc(C(=O)NCc3ccc(F)cc3)c(=O)oc2cc1OCCCOc1no[n+]([O-])c1S(=O)(=O)c1ccccc1`, the Activity was 1.41% in the data set on MCF7 [1]; 18.16% with MCF7 [2]; “Non-Toxic” in [4]; 83.1% with MCF7 [6]; 47.1% in the data set with MCF7 [8]; 9.19% in the data set with MCF7 [9]. The Activity result in data set [10] was “Non-Toxic”; in the data set on MCF7 [12], 38.44%; in data set [14], “Non-Toxic”. For the same molecule, the result in the data set on MCF7 [3] and in the data set on MCF7 [5] was Active. Besides, the half-inhibitory concentration (IC50) in the data set on MCF7 [7] is 370 nM. In addition, the inhibition entry in the data set with MCF7 [11] and with MCF7 [13] was “Dose-Dependent Effect” in each case.

Broadly, the IC50 is the concentration that inhibits the measured activity by half.
